What was measured:
Streptococcus pyogenes = experiment: Antibiotic activity, filter paper disc test on agar plates; type: cell-based; conditions: for antibiotic activity against Streptococcus pyogenes (inhibition zone around disc): 20 μL of each sample (1.6 mM in MeOH) on filter paper discs, Mueller-Hinton agar plates, overnight at 37° C.; for activity against Streptococcus pyogenes grown on Mueller-Hinton agar plates: purified compounds
Method: The antibiotic activity of a compound of formula (13) and (14) against Streptococcus pyogenes was examined by separately applying 20 μL of each sample (1.6 mM in MeOH) to sterilized filter paper discs which were placed onto the surface of S. pyogenes grown on Mueller-Hinton agar plates (Mangahas, 1996).

DNA = conditions: tight DNA binding, literature; cited from earlier work
[1] = biological target: cytochrome P450 hydroxylase (PikC) (Streptomyces venezuelae, UniProt O87605); experiment: Incubation with purified PikC in vitro (aglycone hydroxylation); type: biochemical
Chain of cytochrome P450 hydroxylase (PikC) (O87605 whole entry): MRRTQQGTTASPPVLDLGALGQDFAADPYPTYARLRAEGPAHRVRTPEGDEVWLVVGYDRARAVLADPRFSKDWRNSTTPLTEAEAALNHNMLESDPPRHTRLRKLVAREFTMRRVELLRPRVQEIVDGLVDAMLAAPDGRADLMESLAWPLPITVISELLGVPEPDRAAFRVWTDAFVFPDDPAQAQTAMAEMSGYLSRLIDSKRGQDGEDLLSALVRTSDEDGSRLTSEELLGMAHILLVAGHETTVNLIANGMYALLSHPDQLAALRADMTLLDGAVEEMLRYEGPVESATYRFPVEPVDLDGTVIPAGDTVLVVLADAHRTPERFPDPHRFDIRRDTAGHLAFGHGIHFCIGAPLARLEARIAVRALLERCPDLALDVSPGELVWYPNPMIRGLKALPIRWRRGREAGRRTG
From the text: Another noteworthy, albeit unexpected result was the fact that the aglycone of the isolated macrolide 31 was 10-deoxymethynolide instead of methymycin and neomethymycin analogues that are hydroxylated. […] It is possible that the cytochrome P450 hydroxylase (PikC), which catalyzes the hydroxylation of 10-deoxymethynolide and narbonolide (Xue et al., 1998) is sensitive to structural variations on the appended sugar. […] A similar observation was also noted in the case where desosamine was replaced by quinovose (Example 4). It could be argued that the presence of a substituent (either hydroxyl or amino group) at C-4 in the sugar moiety is responsible, at least in part, for decreasing or preventing hydroxylation of the macrolide.

DesI = biological target: T1, DesI (Streptomyces venezuelae, UniProt Q9ZGH0); experiment: Incubation with purified DesI in the presence of L-glutamate, HPLC analysis; 4-aminotransferase kinetics; type: biochemical
T1 sequence (Q9ZGH0 1-415): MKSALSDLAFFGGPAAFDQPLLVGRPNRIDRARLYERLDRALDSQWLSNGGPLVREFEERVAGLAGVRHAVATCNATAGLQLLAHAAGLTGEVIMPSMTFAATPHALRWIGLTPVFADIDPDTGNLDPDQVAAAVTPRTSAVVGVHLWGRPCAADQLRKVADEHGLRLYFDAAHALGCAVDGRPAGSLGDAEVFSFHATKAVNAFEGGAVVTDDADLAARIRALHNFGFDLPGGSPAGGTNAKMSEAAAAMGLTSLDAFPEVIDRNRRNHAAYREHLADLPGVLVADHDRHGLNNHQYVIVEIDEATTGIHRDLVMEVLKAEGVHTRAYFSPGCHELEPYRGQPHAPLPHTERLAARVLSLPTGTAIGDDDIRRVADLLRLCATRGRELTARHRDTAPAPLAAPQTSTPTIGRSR
From the text: To verify the catalytic function of DesI, the desI gene was amplified by PCR and cloned into the pET-28b(+) expression vector (Novagen) with a His6-tag at the N-terminus. The produced DesI protein was purified to near homogeneity by a Ni-NTA column (Qiagen) followed by FPLC on a MonoQ column.

[2] = substrate: Cc1cn([C@H]2C[C@H](O)[C@@H](COP(=O)(O)OP(=O)(O)O[C@H]3O[C@H](C)C(=O)[C@H](O)[C@H]3O)O2)c(=O)[nH]c1=O; experiment: as above; type: biochemical, Streptomyces venezuelae; conditions: other: DesI as PLP-dependent 4-aminotransferase, sugar substrate 6

Row | Molecule | antibiotic activity against Streptococcus pyogenes (inhibition zone around disc) (Streptococcus pyogenes) | activity against Streptococcus pyogenes grown on Mueller-Hinton agar plates (Streptococcus pyogenes) | further results
1 | CCC1OC(=O)C(C)C(OC2OC(C)CC(N(C)C)C2O[C@@H]2O[C@H](CO)[C@@H](O)[C@H](O)[C@H]2O)C(C)CC(C)C(=O)C=CC1(C)O (stereo partly drawn) [formula (13), C-2′β-glucosylated methymycin] | no such clearings were discernible |  | 
2 | calicheamicin [calicheamicin (26)] |  |  | Ka (DNA binding) (DNA): 10^6-10^8
3 | CCC1OC(=O)C(C)C(=O)C(C)C(OC2OC(C)C(NC(C)=O)C(O)C2O)C(C)CC(C)C(=O)C=CC1C (centres unmarked) [compound 32] |  | inactive | aglycone hydroxylation on incubation with purified PikC [1]: no aglycone hydroxylation was discernible
4 | CCC1OC(=O)C(C)C(OC2OC(C)C(NC(C)=O)C(O)C2O)C(C)CC(C)C(=O)C=CC1C (centres unmarked) [compound 31] |  | inactive | aglycone hydroxylation on incubation with purified PikC [1]: no aglycone hydroxylation was discernible
5 | CC[C@H]1OC(=O)[C@H](C)[C@@H](O[C@@H]2O[C@H](C)C[C@H](N(C)C)[C@H]2O)[C@@H](C)C[C@@H](C)C(=O)/C=C/[C@]1(C)O [formula (1), methymycin] | clearly visible inhibition zones | clearly visible inhibition zones | 
6 | Cc1cn(C2CC(O)C(COP(=O)(O)OP(=O)(O)OC3OC(C)C(O)C(=O)C3O)O2)c(=O)[nH]c1=O [TDP-3-keto-deoxy-D-glucose (7), TDP-3-keto-deoxy-D-glucose] |  |  | consumption of substrate / formation of new product by DesI (DesI): no consumption
7 | CC1CC(N(C)C)C(O[C@@H]2O[C@H](CO)[C@@H](O)[C@H](O)[C@H]2O)C(OC2C(C)CC(C)C(=O)C=CC(C)C(C(C)O)OC(=O)C2C)O1 (stereo partly drawn) [formula (14), C-2′β-glucosylated neomethymycin] | no such clearings were discernible |  | 
8 | C[C@@H]1C[C@H](N(C)C)[C@@H](O)[C@H](O[C@H]2[C@@H](C)C[C@@H](C)C(=O)/C=C/[C@@H](C)[C@@H]([C@@H](C)O)OC(=O)[C@@H]2C)O1 [formula (2), neomethymycin] | clearly visible inhibition zones | clearly visible inhibition zones | 
9 | CC[C@H]1OC(=O)[C@H](C)C(=O)[C@H](C)[C@@H](O[C@@H]2O[C@H](C)C[C@H](N(C)C)[C@H]2O)[C@@H](C)C[C@@H](C)C(=O)/C=C/[C@]1(C)O [pikromycin] |  | clearly visible inhibition zones | 
10 | DesI (Streptomyces venezuelae) (protein) MKSALSDLAFFGGPAAFDQPLLVGRPNRIDRARLYERLDRALDSQWLSNGGPLVREFEERVAGLAGVRHAVATCNATAGLQLLAHAAGLTGEVIMPSMTFAATPHALRWIGLTPVFADIDPDTGNLDPDQVAAAVTPRTSAVVGVHLWGRPCAADQLRKVADEHGLRLYFDAAHALGCAVDGRPAGSLGDAEVFSFHATKAVNAFEGGAVVTDDADLAARIRALHNFGFDLPGGSPAGGTNAKMSEAAAAMGLTSLDAFPEVIDRNRRNHAAYREHLADLPGVLVADHDRHGLNNHQYVIVEIDEATTGIHRDLVMEVLKAEGVHTRAYFSPGCHELEPYRGQPHAPLPHTERLAARVLSLPTGTAIGDDDIRRVADLLRLCATRGRELTARHRDTAPAPLAAPQTSTPTIGRSR |  |  | Km [2]: 130 ± 4 µM

Source: patent publication US20040161839A1, “Method to alter sugar moieties” (priority 2003, published 2004)
